Data reported in patent publication US20260055066A1, “CRYSTALLINE FORM OF PYRIMIDINE-4-CARBOXAMIDE COMPOUND AND ORAL PHARMACEUTICAL FORMULATION CONTAINING SAME” (J2H BIOTECH INC., priority 2022, published 2026).
Where two headings read alike, the source gives them in different places.

Columns and labels:
[1] = Water solubility / BCS classification of the compound of chemical formula 1; type: physicochemical
[2] = Stability evaluation of the crystalline form of Example 1 (ICH long-term and accelerated storage, HPLC; PXRD); type: physicochemical; conditions: for Content / Total impurities: HPLC
Experimental: The stability of the crystalline solid of the compound of chemical formula 1 prepared by Example 1 was evaluated. According to the ICH guideline, the stability test was conducted under long-term storage (25±2° C., 60±5% RH) and accelerated (40±2° C., 75±5% RH) conditions. The analysis was performed using HPLC to evaluate the change in content and the occurrence of impurities, and the results are shown in Table 1 below.
For a BCS Class 2 substance such as the compound of chemical formula 1, it is very important that the crystalline form remains stable under storage conditions. The more insoluble a substance is, the greater the impact of changes in crystallinity on the quality of the final product is. The change in the crystalline form causes changes in hygroscopicity, stability, dissolution, etc.

[3] = Comparative pharmacokinetic test of the formulation in beagle dog, Experimental Example 8; type: in vivo; conditions: for AUC(0-t) / Cmax / Tmax / half-life / Vd/F / CL/F: beagle, dog, plasma; for Vd/F: read-out: Vz(terminal)/F; for CL/F: CL(inf)/F
Experimental: By applying the conditions of Preparation Example 10, tablets containing 25, 50, and 100 mg of the crystalline solid of chemical formula 1 as a pharmaceutical raw material were manufactured. An experiment was conducted to analyze the pharmacokinetic characteristics of the manufactured tablets after oral administration to a beagle dog.
The compound of chemical formula 1 was administered orally to a beagle dog as a single dose of 25, 50, and 100 mg tablets/head, orally as a single dose of 25 mg liquid/head, and intravenously as a single dose of 2 mg/kg. Blood samples were collected before (0) and 15, 30 min, 1, 1.5, 2, 4, 6, 8, 10, 16, and 24 hr after administration of the test substance to measure the blood concentration of the compound of chemical formula 1.
The preparation for single oral administration in liquid/head was prepared by homogeneously suspending 275 mg of the compound of chemical formula 1 in 220 ml of pre-prepared 2.5% HP-PCD (sterile water solution) to obtain 1.25 mg/ml. In addition, the preparation for single intravenous administration was prepared by dissolving 300 mg of the compound of chemical formula 1 in 150 ml of pre-prepared 10% HP-PCD (sterile water solution) to obtain 2 mg/ml.

[4] = accelerated 40±2°C, 75±5% RH, 1 months
[5] = accelerated 40±2°C, 75±5% RH, 3 months
[6] = accelerated 40±2°C, 75±5% RH, 6 months
[7] = accelerated 40±2°C, 75±5% RH, Initial
[8] = long-term storage 25±2°C, 60±5% RH, 1 months
[9] = long-term storage 25±2°C, 60±5% RH, 3 months
[10] = long-term storage 25±2°C, 60±5% RH, 6 months
[11] = long-term storage 25±2°C, 60±5% RH, 12 months
[12] = long-term storage 25±2°C, 60±5% RH, Initial
[13] = iv, 2 mg/kg, 2 mg/kg solution (iv), 10% HP-PCD, single dose, beagle dog plasma
[14] = po, 25 mg, 25 mg solution (po), per head, suspended in 2.5% HP-PCD, single dose, beagle dog plasma
[15] = po, 25 mg, 25 mg tablet (po), per head, single dose, beagle dog plasma
[16] = po, 50 mg, 50 mg tablet (po), per head, single dose, beagle dog plasma
[17] = po, 100 mg, 100 mg tablet (po), per head, single dose, beagle dog plasma

solubility ([1]; water): ≤ 1 µg/mL
Content [2, 4]: 99.6%
Total impurities [2, 4]: 0.43%
Content [2, 5]: 100.8%
Total impurities [2, 5]: 0.44%
Content [2, 6]: 100.0%
Total impurities [2, 6]: 0.42%
Content [2, 7]: 99.9%
Total impurities [2, 7]: 0.34%
Content [2, 8]: 99.5%
Total impurities [2, 8]: 0.43%
Content [2, 9]: 99.3%
Total impurities [2, 9]: 0.41%
Content [2, 10]: 100.5%
Total impurities [2, 10]: 0.43%
Content [2, 11]: 99.7%
Total impurities [2, 11]: 0.45%
Content [2, 12]: 99.9%
Total impurities [2, 12]: 0.34%
crystalline form (PXRD) of stored stability samples ([2]; stored 3, 6 and 12 months (12 months long-term only)): the crystalline form did not change
CL(inf)/F ([3]; 2 mg/kg solution (iv), 10% HP-PCD, single dose, beagle dog plasma): 5.5 mL/min/kg
BA ([3]; 25 mg solution (po), per head, single dose, beagle dog): 45.82 % F
BA ([3]; 25 mg tablet (po), per head, single dose, beagle dog): 44.31 % F
average absorption (AUClast) of the tablet administration group relative to the liquid administration group ([3]; 25 mg/head po, beagle dog): 96.7%
BA ([3]; 50 mg tablet (po), per head, single dose, beagle dog): 35.37 % F
BA ([3]; 100 mg tablet (po), per head, single dose, beagle dog): 25.40 % F
AUC(0-t) [3, 13]: 6180 ng·h/mL
Cmax [3, 13]: 1160 ng/mL
Tmax [3, 13]: 0.25 h
half-life [3, 13]: 4.07 h
AUC(0-t) [3, 14]: 3370 ng·h/mL
Cmax [3, 14]: 393 ng/mL
Tmax [3, 14]: 1.5 h
half-life [3, 14]: 6.32 h
Vd/F [3, 14]: 58.5 L
AUC(0-t) [3, 15]: 3260 ng·h/mL
Cmax [3, 15]: 420 ng/mL
Tmax [3, 15]: 2 h
half-life [3, 15]: 4.42 h
Vd/F [3, 15]: 49.4 L
CL/F [3, 14]: 6.9 L/h
CL/F [3, 15]: 8.04 L/h
AUC(0-t) [3, 16]: 5210 ng·h/mL
Cmax [3, 16]: 666 ng/mL
Tmax [3, 16]: 2 h
half-life [3, 16]: 5.29 h
Vd/F [3, 16]: 79.3 L
CL/F [3, 16]: 10.2 L/h
AUC(0-t) [3, 17]: 7480 ng·h/mL
Cmax [3, 17]: 899 ng/mL
Tmax [3, 17]: 1.75 h
half-life [3, 17]: 6.89 h
Vd/F [3, 17]: 119 L
CL/F [3, 17]: 12.8 L/h
SMILES: C[C@@H]1CN(c2ccc(S(C)(=O)=O)cc2F)CCN1c1nccc(C(=O)NC2C3CC4CC2CC(O)(C4)C3)n1 (stereo partly drawn) [chemical formula 1, 2-((R)-4-(2-fluoro-4-(methylsulfonyl)phenyl)-2-methylpiperazin-1-yl)-N-((1R,2s,3S,5S,7S)-5-hydroxyadamantan-2-yl)pyrimidine-4-carboxamide]
Biopharmaceutics classification system (BCS) class [1]: Class 2 (high permeability, low solubility)
solubility according to pH [1]: does not have the characteristic of improving solubility according to pH
